The record followed here is US6319916A, “Heterocyclic compounds, their production and use” (Takeda Chemical Industries, Ltd., priority 1992, dated 2001).

The structures appear in SMILES notation. Structures can show the parent of a compound that is named as a salt.

The target of one test is T1, Acetylcholinesterase (Rattus norvegicus, UniProt P37136).
T1 construct: S1 fraction of a homogenate of male Wistar rat cerebral cortex as the cholinesterase source; from tissue; host or cells: male Wistar rat cerebral cortex, S1 fraction of homogenate
T1 sequence (P37136 32-614): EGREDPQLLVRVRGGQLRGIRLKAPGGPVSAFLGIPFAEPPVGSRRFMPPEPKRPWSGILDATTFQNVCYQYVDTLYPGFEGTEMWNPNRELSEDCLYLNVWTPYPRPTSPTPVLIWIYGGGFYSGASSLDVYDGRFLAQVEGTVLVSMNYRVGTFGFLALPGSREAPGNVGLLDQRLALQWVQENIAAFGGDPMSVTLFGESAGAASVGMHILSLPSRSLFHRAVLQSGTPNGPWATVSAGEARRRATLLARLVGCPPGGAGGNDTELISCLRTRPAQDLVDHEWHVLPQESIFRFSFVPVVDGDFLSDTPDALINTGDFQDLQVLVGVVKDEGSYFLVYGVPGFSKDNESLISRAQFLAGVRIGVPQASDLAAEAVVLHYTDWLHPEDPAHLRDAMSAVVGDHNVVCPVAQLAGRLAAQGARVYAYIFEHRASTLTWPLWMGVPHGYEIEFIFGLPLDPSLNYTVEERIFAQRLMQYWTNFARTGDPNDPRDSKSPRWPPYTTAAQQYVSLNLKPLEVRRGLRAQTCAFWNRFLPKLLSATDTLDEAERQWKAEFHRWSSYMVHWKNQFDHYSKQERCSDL
The experiment in a line: Cholinesterase inhibitory activity with (acetyl[^3 H])-acetylcholine. As to conditions: S1 fraction of homogenate of male Wistar rat cerebral cortex; 30 minutes incubation. The class given is biochemical.
Experimental: The cholinesterase inhibitory activity of the compound of this invention was assayed with (acetyl[^3 H])-acetylcholine. More specifically, (acetyl[^3 H])-acetylcholine as the substrate and the compound of this invention as the test sample were added to the S1 fraction of a homogenate of male Wistar rat cerebral cortex as the cholinesterase source. The mixture was incubated for 30 minutes, after completion of the reaction, to the reaction mixture was added a toluene-based scintillator, and the mixture was shaken. The reaction product [^3 H]-acetic acid was transferred to the toluene layer, which was subjected to determination of cholinesterase inhibitory activity by counting with a liquid scintillation counter.
The cholinesterase inhibitory activity of the test compound was expressed in 50% inhibitory concentration (IC50).
Turning to `O=C(CCC1CCN(Cc2ccccc2)CC1)c1ccc2c(c1)CNCCO2` [3-A, 3-[1-(Phenylmethyl)piperidin-4-yl]-1-(2,3,4,5-tetrahydro-1,4-benzoxazepin-7-yl)-1-propanone dihydrochloride], the IC50 worked out at 17.5 nM. That is a double-digit nanomolar value.

In the case of `Cl.Cl.O=C(CCC1CCN(Cc2ccccc2)CC1)c1ccc2c(c1)CN(Cc1ccccc1)CCO2` [3-B, 1-[4-(Phenylmethyl)-2,3,4,5-tetrahydro-1,4-benzoxazepin-7-yl]-3-[1-(phenylmethyl)piperidin-4-yl]-1-propanone dihydrochloride], the IC50 was 119 nM.

`O=C(CCC1CCN(Cc2ccccc2)CC1)c1ccc2c(c1)CN(Cc1ccc([N+](=O)[O-])cc1)CCO2` [8-5] yielded an IC50 of 12.7 nM. Against the preceding compound, the IC50 is about 9.4-fold lower.

Compound `CC(=O)N1CCOc2ccc(C(=O)CCC3CCN(Cc4ccccc4)CC3)cc2C1` [Example 4, 1-(4-Acetyl-2,3,4,5-tetrahydro-1,4-benzoxazepin-7-yl)-3-[1-(phenylmethyl)piperidin-4-yl]-1-propanone hydrochloride] registered an IC50 of 54.5 nM.

Turning to `COc1ccc(CN2CCOc3ccc(C(=O)CCC4CCN(Cc5ccccc5)CC4)cc3C2)cc1` [Example 5, 1-[4-(4-Methoxyphenylmethyl)-2,3,4,5-tetrahydro-1,4-benzoxazepin-7-yl]-3-[1-(phenylmethyl)piperidin-4-yl]-1-propanone dihydrochloride], it took 69.6 nM to reach half-maximal inhibition (IC50).

As for `O=CN1CCOc2ccc(C(=O)CCN3CCN(Cc4ccccc4)CC3)cc2C1` [Example 6, 1-(4-Formyl-2,3,4,5-tetrahydro-1,4-benzoxazepin-7-yl)-3-[4-(phenylmethyl)piperazin-1-yl]-1-propanone dihydrochloride], half-maximal inhibition (IC50) was put at 107 nM.

In a further test the test system is mice. Kind of test: Antidepressant activity, tail suspension test. The class given is in vivo, ICR male mice. As to conditions: 30 mg/kg, oral; thirty minutes later suspended on tails for 10 minutes; **P < 0.01; saline 49.45 ± 2.47. As for the experimental part:
The antidepressant activity of the compound of the present invention was assayed by means of tail suspension test using ICR male mice (five weeks of age, weighing 23.5 to 37.6 g) as test animals. […]. Thirty minutes later, the mice were suspended on tails for 10 minutes and immobility thereof (% control) was measured. The antidepressant activity of the test compound was shown as in percent control of immobility. As a comparative compound, desipramine, which is known to have an antidepressant activity, was employed and the immobility thereof was measured in the same manner as described above.
With `Cl.Cl.O=C(CCC1CCN(Cc2ccccc2)CC1)c1ccc2c(c1)CN(Cc1ccccc1)CCO2` [3-B, 1-[4-(Phenylmethyl)-2,3,4,5-tetrahydro-1,4-benzoxazepin-7-yl]-3-[1-(phenylmethyl)piperidin-4-yl]-1-propanone dihydrochloride], the Immobility is recorded as 34.37 ± 4.49%.

In turn, `CNCCCN1c2ccccc2CCc2ccccc21` [desipramine, reference compound] came in with an Immobility of 37.25 ± 3.32%.

For orientation: IC50 means the point on the concentration scale where inhibition reaches its midpoint. Higher therefore signals weaker potency.
